In ChEMBL document CHEMBL3045925 (Med Chem Res, 2013):
≈ marks a conversion by molar mass, not a printed value. Calls of active or inactive are those of the source. No cut-off for these calls is given here.

Experiments:
[1] = tested on: Radical scavenging activity; assay: Antioxidant activity assessed as DPPH free radical scavenging activity at 125 ug/mL after 30 min by spectrophotometric analysis; format: functional
[2] = Antioxidant activity assessed as reduction of Fe3+ to Fe2+ measured Fe2+ equivalent per gram dry mass after 4 min by spectrophotometric analysis; format: functional
[3] = Antioxidant activity assessed as reduction of Cu2+ to Cu+ at 125 to 1000 ug/mL after 30 min by spectrophotometric analysis; format: functional
[4] = tested on: Radical scavenging activity; assay: Antioxidant activity assessed as DPPH free radical scavenging activity at 1000 ug/mL after 30 min by spectrophotometric analysis; format: functional
[5] = tested on: Radical scavenging activity; assay: Antioxidant activity assessed as DPPH free radical scavenging activity at 500 ug/mL after 30 min by spectrophotometric analysis; format: functional
[6] = tested on: Radical scavenging activity; assay: Antioxidant activity assessed as DPPH free radical scavenging activity at 250 ug/mL after 30 min by spectrophotometric analysis; format: functional
[7] = tested on: Scopulariopsis; assay: Antifungal activity against Scopulariopsis sp. 101/01 assessed as growth inhibition after 48 to 72 hr by two-fold serial dilution method; format: functional
[8] = tested on: Trichophyton mentagrophytes; assay: Antifungal activity against Trichophyton mentagrophytes 66/01 assessed as growth inhibition after 48 to 72 hr by two-fold serial dilution method; format: functional
[9] = tested on: Trichophyton rubrum; assay: Antifungal activity against Trichophyton rubrum 57/01 assessed as growth inhibition after 48 to 72 hr by two-fold serial dilution method; format: functional
[10] = tested on: Botrytis cinerea; assay: Antifungal activity against Botryotinia fuckeliana assessed as growth inhibition after 48 to 72 hr by two-fold serial dilution method; format: functional
[11] = tested on: Candida albicans; assay: Antifungal activity against Candida albicans MTCC 227 assessed as growth inhibition after 48 to 72 hr by two-fold serial dilution method; format: functional
[12] = tested on: Malassezia pachydermatis; assay: Antifungal activity against Malassezia pachydermatis assessed as growth inhibition after 48 to 72 hr by two-fold serial dilution method; format: functional
[13] = tested on: Aspergillus flavus; assay: Antifungal activity against Aspergillus flavus assessed as growth inhibition after 48 to 72 hr by two-fold serial dilution method; format: functional
[14] = tested on: Shigella flexneri; assay: Antibacterial activity against Shigella flexneri MTCC 1457 assessed as growth inhibition after 24 hr by two-fold serial dilution method; format: functional; conditions: MTCC 1457, 24 h
[15] = tested on: Bacillus subtilis; assay: Antibacterial activity against Bacillus subtilis MTCC 441 assessed as growth inhibition after 24 hr by two-fold serial dilution method; format: functional; conditions: MTCC 441, 24 h
[16] = tested on: Staphylococcus epidermidis; assay: Antibacterial activity against Staphylococcus epidermidis MTCC 3615 assessed as growth inhibition after 24 hr by two-fold serial dilution method; format: functional; conditions: MTCC 3615, 24 h
[17] = tested on: Staphylococcus aureus; assay: Antibacterial activity against Staphylococcus aureus MTCC 96 assessed as growth inhibition after 24 hr by two-fold serial dilution method; format: functional; conditions: MTCC 96, 24 h
[18] = tested on: Micrococcus luteus; assay: Antibacterial activity against Micrococcus luteus assessed as growth inhibition after 24 hr by two-fold serial dilution method; format: functional
[19] = tested on: Escherichia coli; assay: Antibacterial activity against Escherichia coli ESBL 3984 clinical isolate assessed as growth inhibition after 24 hr by two-fold serial dilution method; format: functional; conditions: ESBL 3984, 24 h
[20] = tested on: Escherichia coli; assay: Antibacterial activity against Escherichia coli ESBL 3904 clinical isolate assessed as growth inhibition after 24 hr by two-fold serial dilution method; format: functional; conditions: ESBL 3904, 24 h
[21] = tested on: Klebsiella pneumoniae; assay: Antibacterial activity against Klebsiella pneumoniae ESBL 3971 clinical isolate assessed as growth inhibition after 24 hr by two-fold serial dilution method; format: functional; conditions: ESBL 3971, 24 h
[22] = tested on: Klebsiella pneumoniae; assay: Antibacterial activity against Klebsiella pneumoniae ESBL 3967 clinical isolate assessed as growth inhibition after 24 hr by two-fold serial dilution method; format: functional; conditions: ESBL 3967, 24 h
[23] = tested on: Klebsiella pneumoniae; assay: Antibacterial activity against Klebsiella pneumoniae ESBL 75799 clinical isolate assessed as growth inhibition after 24 hr by two-fold serial dilution method; format: functional; conditions: ESBL 75799, 24 h
[24] = tested on: Klebsiella pneumoniae; assay: Antibacterial activity against Klebsiella pneumoniae ESBL 3894 clinical isolate assessed as growth inhibition after 24 hr by two-fold serial dilution method; format: functional; conditions: ESBL 3894, 24 h
[25] = tested on: Staphylococcus aureus; assay: Antibacterial activity against methicillin-resistant Staphylococcus aureus clinical isolate assessed as growth inhibition after 24 hr by two-fold serial dilution method; format: functional
[26] = tested on: Salmonella typhimurium; assay: Antibacterial activity against Salmonella enterica subsp. enterica serovar Typhimurium MTCC 1251 assessed as growth inhibition after 24 hr by two-fold serial dilution method; format: functional; conditions: MTCC 1251, 24 h
[27] = tested on: Pseudomonas aeruginosa; assay: Antibacterial activity against Pseudomonas aeruginosa MTCC 741 assessed as growth inhibition after 24 hr by two-fold serial dilution method; format: functional; conditions: MTCC 741, 24 h
[28] = tested on: Salmonella enterica subsp. enterica serovar Paratyphi B; assay: Antibacterial activity against Salmonella enterica subsp. enterica serovar Paratyphi B assessed as growth inhibition after 24 hr by two-fold serial dilution method; format: functional
[29] = tested on: COLO 320; assay: Cytotoxicity against Homo sapiens (human) COLO320 cells by MTT assay
[30] = Antioxidant activity assessed as reduction of Cu2+ to Cu+ after 30 min by spectrophotometric analysis; format: functional
[31] = tested on: COLO 320; assay: Cytotoxicity against Homo sapiens (human) COLO320 cells at 10 ug/mL by MTT assay; format: functional
[32] = tested on: COLO 320; assay: Cytotoxicity against Homo sapiens (human) COLO320 cells at 50 ug/mL by MTT assay; format: functional
[33] = tested on: COLO 320; assay: Cytotoxicity against Homo sapiens (human) COLO320 cells at 25 ug/mL by MTT assay; format: functional
[34] = tested on: COLO 320; assay: Cytotoxicity against Homo sapiens (human) COLO320 cells at 100 ug/mL by MTT assay; format: functional
[35] = tested on: COLO 320; assay: Cytotoxicity against Homo sapiens (human) COLO320 cells at 200 ug/mL by MTT assay; format: functional

Structure (SMILES) | Activity [1] | Activity [2] | Activity [4] | Activity [5] | Activity [6] | MIC [7] | MIC [8] | MIC [9] | MIC [10] | MIC [11] | MIC [12] | MIC [13] | MIC [14] | MIC [15] | MIC [16] | MIC [17] | MIC [18] | MIC [19] | MIC [20] | MIC [21] | further results
Cc1cc(C(C)(C)C)c(O)c(C(C)(C)C)c1 | 60.9% | 2.21 mMequiv | 90.1% | 80.9% | 71.7% | – | – | – | – | – | – | – | – | – | – | – | – | – | – | – | Activity [3]: Active
CC(=O)N1CCN(c2ccc(OCC3COC(Cn4ccnc4)(c4ccc(Cl)cc4Cl)O3)cc2)CC1 (configuration not stated) [KETOCONAZOLE] | – | – | – | – | – | < 12.5 µg/mL | < 12.5 µg/mL | < 12.5 µg/mL | < 12.5 µg/mL | 25 µg/mL (≈ 47 µM) | 12.5 µg/mL (≈ 23.5 µM) | < 12.5 µg/mL | – | – | – | – | – | – | – | – | –
COc1cc(/C=C/C(=O)NCCCCNC(=O)/C=C/c2ccc(O)c(OC)c2)ccc1O [TERRESTRIBISAMIDE] | 40.2% | 0.808 mMequiv | 88.3% | 84.6% | 68.3% | > 200 µg/mL | > 200 µg/mL | > 200 µg/mL | > 200 µg/mL | 200 µg/mL (≈ 454 µM) | 200 µg/mL (≈ 454 µM) | > 200 µg/mL | > 200 µg/mL | 200 µg/mL (≈ 454 µM) | 200 µg/mL (≈ 454 µM) | > 200 µg/mL | 200 µg/mL (≈ 454 µM) | 200 µg/mL (≈ 454 µM) | 200 µg/mL (≈ 454 µM) | > 200 µg/mL | MIC [22]: > 200 µg/mL; MIC [23]: > 200 µg/mL; MIC [24]: > 200 µg/mL; MIC [25]: > 200 µg/mL; MIC [26]: > 200 µg/mL; MIC [27]: > 200 µg/mL; MIC [28]: > 200 µg/mL; IC50 [29]: 50 µg/mL (≈ 114 µM); Activity [30]: Dose-dependent effect; Activity [31]: 9.655%; Activity [32]: 51.195%; Activity [33]: 21.609%; Activity [34]: 64.827%; Activity [35]: 83.218%
CN[C@@H]1[C@H](O[C@H]2[C@H](O[C@H]3[C@H](O)[C@@H](O)[C@H](N=C(N)N)[C@@H](O)[C@@H]3N=C(N)N)O[C@@H](C)[C@]2(O)C=O)O[C@@H](CO)[C@H](O)[C@H]1O [STREPTOMYCIN] | – | – | – | – | – | – | – | – | – | – | – | – | 6.25 µg/mL (≈ 10.7 µM) | 25 µg/mL (≈ 43 µM) | 25 µg/mL (≈ 43 µM) | 6.25 µg/mL (≈ 10.7 µM) | 6.25 µg/mL (≈ 10.7 µM) | 25 µg/mL (≈ 43 µM) | 25 µg/mL (≈ 43 µM) | 6.25 µg/mL (≈ 10.7 µM) | MIC [22]: 25 µg/mL (≈ 43 µM); MIC [23]: 25 µg/mL (≈ 43 µM); MIC [24]: 6.25 µg/mL (≈ 10.7 µM); MIC [25]: 6.25 µg/mL (≈ 10.7 µM); MIC [26]: 30 µg/mL (≈ 51.6 µM); MIC [27]: 25 µg/mL (≈ 43 µM); MIC [28]: inactive
